Data set [1] relates to cerebellar granule neurones. The experiment in a line: Assay 3: intracellular cyclic AMP enzyme immunoassay. It counts as cell-based, rat. To be noted: agonist 0 to 30 nM, 15 min, 0.5 mM IBMX. The method, then:
Assay 3: The production of cAMP by the CRF receptor agonist peptides CRF, urotensin 1, urocortin and sauvagine was measured as follows. This assay can be used analogously for any putative CRF receptor agonists including non-peptide agonists.
Intracellular cyclic AMP was measured with a cAMP 2-site enzyme immunoassay system (trade mark BIOTRAK, commercially available from Amersham Pharmacia Biotech, PO Box 164, Rainham, Essex RM13 8JZ, United Kingdom, Amersham catalogue number RPN225), based upon the use of a sensitive and highly specific capture antibody for cyclic AMP:
Cerebellar granule neurones were seeded in polylysine-coated […] plates, 3.5×10^5 cells per 48-well, in Basal medium Eagle's containing 10% fetal calf serum, 25 mM KCl, and antibiotics. At 8-9 days in vitro, granule neurone cultures were shifted to serum-free plating medium (0.4 ml) with 0.5 mM IBMX (to inhibit the breakdown of cyclic AMP) for 15 min (37° C.). Wells then received 0.1 ml of test peptide (5× final concentration). Generally 1 μM is the preferable final concentration for a putative CRF agonist under test, though different (e.g. lower) concentrations can be used as shown for the peptide agonists in FIG. 3. Incubation was continued for 15 min. Test medium was removed and the plate placed on dry ice, and stored at −140° C. Cyclic AMP analysis was performed the following day.
Cells were then lysed with the reagent provided with the BIOTRAK kit. Intracellular content of cyclic AMP in the lysates was assayed following the manufacturer's instructions. A standard curve was constructed using the cyclic AMP calibration provided, with the quantity of bound cyclic AMP being inversely proportional to the amount of second (chromogenic) antibody bound to the reaction wells. The colour product was read with an ELISA plate reader, and was a function of the amount of cyclic AMP in the unknown sample.

In data set [2] the test system is cerebellar granule neurones. The format is cell-based, rat. To be noted: 48 h, MTT, sham-treated = 100%. The method, then:
Cerebellar granule neurones were used in the examples to test neuroprotection by CRF receptor agonists. Cerebellar granule neurones (CGNs) undergo apoptosis during the first few weeks of postnatal life, and in culture require mildly depolarising concentrations of KCl (25 mM) for their survival and maturation (S. R: D'Mello et al., Proc. Natl. Acad. Sci. USA 90, 10989-10993, 1993). The growth signal provided by KCl depends upon activation of the phosphatidylinositol 3-kinase (PI 3-kinase) pathway, and pharmacological inhibition of PI 3-kinase in differentiated granule neurones leads to apoptotic death in the CGNs (T. M. Miller et al., J. Biol. Chem., 272, 9847-9853, 1997). Thus, cultured CGNs represent a suitable model to study mechanisms of programmed cell death, and to identify putative neuroprotective signalling pathways.
Assay 1: Cerebellar granule neurones prepared from postnatal day 8 Sprague Dawley rat pups were used for experiments on death induced by inhibition of PI 3-kinase. General culture methods are described in S. D. Skaper et al. in Methods in Neurosciences, Vol. 2 (Conn P. M., ed), pp. 17-33. Academic Press, San Diego, 1990. At 8-9 days in vitro (DIV), granule neurone cultures were shifted to phenol red-free Dulbecco's modified Eagle's medium lacking serum, and containing 0.05% bovine serum albumin and 25 mM KCl. Death was induced by addition of the PI 3-kinase inhibitor LY 294002 (75 μM). CRF or CRF agonist peptides (urotensin 1, urocortin, sauvagine) were added at different concentrations (from 0.3nM to 300 nM or 1000 nM) together with LY 294002. Forty-eight hours later neuronal survival was quantified by a colorimetric reaction MTT. Absolute MTT values obtained were normalised for small differences in interexperiment plating densities by scaling to the mean of sham-treated sister cultures (defined as 100%).
Results are shown in Table 1 below and in graphical form in FIG. 1, which show the percentage mean neuronal survival (and standard deviation), when in the presence of the relevant CRF receptor agonists and LY 294002, as a function of agonist concentration. […] Urotensin 1, urocortin and sauvagine were also neuroprotective albeit with lower potency (<1 μM).

Data set [3] relates to primary cerebellar granule neurones. The experiment in a line: Assay 2: effect of CP154,526 on agonist protection against LY294002 neurotoxicity. To be noted: LY 294002 75 μM; for effect of CP 154,526 on neuroprotective effect of CRF receptor agonist (FIGS. 2B-D): urocortin, urotensin 1 or sauvagine 10 nM. The format is cell-based, rat. The method, then:
Assay 2: This assay measures the effects of CP154,526, a selective CRF receptor-1 antagonist, on the protective effects of a putative CRF receptor agonist against neurotoxicity induced by LY294002 in primary cerebellar granule neurones. The assay is identical to Assay 1 except that after shifting the granule neurone cultures to the medium, the cultures were incubated with CP154,526 at concentrations varying from 3 nM to 1000 nM for 30 minutes prior to simultaneous addition of the putative CRF receptor agonist (10 nM) and LY 294002 (75 μM). 48 hours later neuronal survival was measured as in Assay 1.
The columns from left to right represent: (1) control: cells cultured with CRF (10 nM) and LY 294002 (75 μM); (2 to 7) cells cultured with CRF (10 nM), LY 294002 (75 μM) and CP 154,526 at concentrations of 3 nM, 10 nM, 30 nM, 100 nM, 300 nM and 1000 nM respectively; and (8) cells cultured without agonist (CRF) but with LY 294002 (75 μM).

In a further data set the test system is hippocampal neurones. The experiment in a line: Amyloid-β peptide (25-35) toxicity, survival by counting viable neurons (FIGS. 8, 9). The format is cell-based. As to conditions: for neuronal death: 10-20 μM. How it is done:
In order to test whether CRF receptor agonists protect neurones from death caused by Aβ, the following experiment was conducted (FIGS. 8 and 9). Hippocampal neurons from embryonic day 18 rat were cultured in serum-free medium (neurobasal/B27) for 9 days. The culture methods are described on page 48 of S. D. Skaper et al., J. Neurochem., 2001, 76, 47-55. Cells were then treated with amyloid-β peptide (fragment 25-35) (Sigma, cat. no. A-4559, sequence Gly-Ser-Asn-Lys-Gly-Ala-Ile-Ile-Gly-Leu-Met) at 10 μM plus the indicated CRF receptor agonist at the indicated concentration, in the same culture medium. […] Cell survival was assessed after 3 days, by fixing the cultures and counting microscopically viable neurons. Values are expressed relative to numbers of surviving neurons in untreated cultures (=100).

The target in data set [4] is CRF receptor-1 (Type 1 CRF receptor) on primary rat neurones (rat, UniProt P35353). The experiment in a line: cell-based or functional assay.
[5] abbreviates: agonist 0.3 nM with LY 294002 75 μM.
The mark [6] stands for this setting: agonist 1 nM with LY 294002 75 μM.
Where [7] appears, read: agonist 3 nM with LY 294002 75 μM.
[8] abbreviates: agonist 10 nM with LY 294002 75 μM.
The mark [9] stands for this setting: agonist 30 nM with LY 294002 75 μM.
[10] abbreviates: agonist 100 nM with LY 294002 75 μM.
[11] abbreviates: agonist 300 nM with LY 294002 75 μM.

Where two headings read alike, the source gives them in different places. Ends that are not written are not given here.

With `CC[C@H](C)[C@H](NC(=O)[C@@H](NC(=O)[C@H](CC(=O)O)NC(=O)[C@H](CC(C)C)NC(=O)[C@H](CC(C)C)NC(=O)[C@H](CC(C)C)NC(=O)[C@H](CCCNC(=N)N)NC(=O)[C@H](CC(N)=O)NC(=O)[C@H](CC(N)=O)NC(=O)[C@H](C)NC(=O)[C@H](C)NC(=O)[C@H](CCC(N)=O)NC(=O)[C@H](CCC(N)=O)NC(=O)[C@H](CCCCN)NC(=O)[C@H](CCC(=O)O)NC(=O)[C@H](CCCCN)NC(=O)[C@H](CCC(=O)O)NC(=O)[C@H](CCC(N)=O)NC(=O)[C@H](CCCCN)NC(=O)[C@H](CCC(=O)O)NC(=O)[C@@H](NC(=O)[C@H](CCC(=O)O)NC(=O)[C@@H](NC(=O)[C@H](CCSC)NC(=O)[C@H](CCCCN)NC(=O)[C@H](CCCNC(=N)N)NC(=O)[C@H](CC(C)C)NC(=O)[C@H](CC(C)C)NC(=O)[C@H](CCC(=O)O)NC(=O)[C@H](CC(C)C)NC(=O)[C@H](CO)NC(=O)[C@H](CC(C)C)NC(=O)[C@H](CC(=O)O)NC(=O)[C@@H](NC(=O)[C@H](CO)NC(=O)[C@@H](NC(=O)[C@@H]1CCCN1C(=O)[C@@H]1CCCN1C(=O)CNC(=O)[C@@H]1CCC(=O)N1)[C@@H](C)CC)[C@@H](C)CC)[C@@H](C)CC)[C@@H](C)CC)[C@@H](C)O)C(N)=O` [Sauvagine], the “cAMP synthesis induced by agonist (FIG. 3)” value in data set [1] was “cAMP production increased with agonist concentration”. Further, the Mean survival % in data set [2] (setting [5]) stood at 49.33%; in data set [2] (setting [6]), 66.5%; in data set [2] (setting [7]), 76.33%; in data set [2] (setting [8]), 80.67%; in data set [2] (setting [9]) it was 78.67%; in data set [2] (setting [10]), 77.33%. This molecule also yielded a Mean survival % in data set [2] (setting [11]) of 78.33%.
In the case of “DDPPLSIDLTFHLLRTLLELARTQSQRERAEQNRIIFDSV [Urocortin, Urocortin (rat, Sigma Cat. no. U-6631), CRF receptor agonist peptide]”, the “cAMP synthesis induced by agonist (FIG. 3)” value in data set [1] was “cAMP production increased with agonist concentration”. Moreover, the Mean survival % was 50.67% in data set [2] (setting [5]); 61.33% in data set [2] (setting [6]); 69.33% in data set [2] (setting [7]); 77.33% in data set [2] (setting [8]); 80.67% in data set [2] (setting [9]); 75% in data set [2] (setting [10]). In data set [2] (setting [11]), this molecule showed a Mean survival % of 84%.
As to `CCCCN(CC)c1nc(C)nc2c1c(C)cn2-c1c(C)cc(C)cc1C` [CP 154,526], the “effect of CP 154,526 on neuroprotective effect of CRF receptor agonist (FIGS. 2B-D)” value is “partial reductions in neuroprotection” in data set [3] (CP 154,526 300 nM) and “remove most or all of the neuroprotective effect” in data set [3] (CP 154,526 1000 nM). The “effect of CP 154,526 on neuroprotective effect of CRF (FIG. 2A)” value in data set [3] (CP 154,526 as low as 300 nM, CRF 10 nM) is “remove almost completely the neuroprotective effect of 10 nM CRF”. Moreover, the “effect of CP-154,526 on CRF's neuroprotection (FIG. 8)” value in the data set with hippocampal neurones (CP-154,526 1 μM with CRF (30 nM) and Aβ(25-35) 10 μM, 3 days) was “cancels all of CRF's neuroprotection”.
For “GSNKGAIIGLM [Aβ, Gly-Ser-Asn-Lys-Gly-Ala-Ile-Ile-Gly-Leu-Met]”, the neuronal death entry is “cell death was visible” with hippocampal neurones (after 2-3 days) and “no visible neuronal death” in the data set on hippocampal neurones (after 1 day of exposure).
As for “MLGIIAGKNSG [reverse β-amyloid sequence (35-25)]”, the neurotoxicity of peptide result in the data set on hippocampal neurones (20 μM, results not shown) was “not to be neurotoxic”.
Take NDDPPISIDLTFHLLRNMIEMARIENEREQAGLNRKYLDEV-NH2 [Urotensin 1 (teleost fish, Sigma cat. no. U-7253)]: in data set [4], the “potency of neuroprotection of cerebellar granule neurones against LY 294002 (Assay 1)” value was under 1000 nM.
Consider SQEPPISLDLTFHLLREVLEMTKADQLAQQAHNNRKLLDIA-NH2 [Rat CRF (corticotropin-releasing factor), Sigma catalogue no. C-3042], for which, in data set [4], the “EC50 of neuroprotection of cerebellar granule neurones against LY 294002 (Assay 1)” value is about 10 nM.
Consider DDPPLSIDLTFHLLRTLLELARTQSQRERAEQNRIIFDSV-NH2 [Urocortin (rat, Sigma Cat. no. U-6631)], for which, in data set [4], the “potency of neuroprotection of cerebellar granule neurones against LY 294002 (Assay 1)” value is under 1000 nM.
